Assay results as given in ChEMBL document CHEMBL1201862, “PubChem BioAssay data set” (2004).
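Exposure lasted 48 hours, with cells grown in 96-well plates and compounds tested at five concentrations. The concentration for 50% growth inhibition is given as GI50.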 Activity calls are given as the source filed them. Cut-off read from the data, not from the text of the source: active = GI50 up to about 1.1 µM and inactive = higher. Where a SMILES comes first, the peptide text is derived from it. [ ]: non-standard residue; d: D form. The star is where a group is joined. ξ: configuration not given here. ξF = NC(Cc1ccccc1)C(=O)O; Cbz = O=C(OCc1ccccc1)*; Aib = CC(C)(N)C(=O)O; NHNH2 = NN*

How the values were obtained:
Assay in all cases: NCI tumour cell line growth inhibition, 48 h
786-0 = tested on: 786-0
A498 = tested on: A498
EKVX = tested on: EKVX
HCT-15 = tested on: HCT-15
K562 = tested on: K562
KM12 = tested on: KM12
MDA-MB-231 = tested on: MDA-MB-231
MDA-N = tested on: MDA-N
OVCAR-8 = tested on: OVCAR-8
SK-MEL-28 = tested on: SK-MEL-28
SK-MEL-2 = tested on: SK-MEL-2
SNB-75 = tested on: SNB-75
SR = tested on: SR
U-251 = tested on: U-251
UACC-62 = tested on: UACC-62
CCRF-CEM = tested on: CCRF-CEM
HOP-92 = tested on: HOP-92
M14 = tested on: M14
SF-539 = tested on: SF-539
SK-OV-3 = tested on: SK-OV-3

| SMILES | GI50 (786-0) | GI50 (A498) | GI50 (EKVX) | GI50 (HCT-15) [µM] | GI50 (K562) | GI50 (KM12) | GI50 (MDA-MB-231) | GI50 (MDA-N) | GI50 (OVCAR-8) | GI50 (SK-MEL-28) | GI50 (SK-MEL-2) | GI50 (SNB-75) | GI50 (SR) | GI50 (U-251) | GI50 (UACC-62) | GI50 (CCRF-CEM) | GI50 (HOP-92) | GI50 (M14) | GI50 (SF-539) | GI50 (SK-OV-3) |
| --- | --- | --- | --- | --- | --- | --- | --- | --- | --- | --- | --- | --- | --- | --- | --- | --- | --- | --- | --- | --- |
| O=C(O)c1nc2ccc(C(F)(F)F)cc2nc1Nc1ccc(F)cc1 | 20 µM (inactive) | 16.9 µM (inactive) | 20.7 µM (inactive) | 20.7 | 11.2 µM (inactive) | 18.6 µM (inactive) | 25.1 µM (inactive) | 27.5 µM (inactive) | 17.2 µM (inactive) | 37.6 µM (inactive) | 15.3 µM (inactive) | 23.3 µM (inactive) | 12.1 µM (inactive) | 7.38 µM (inactive) | 11.7 µM (inactive) | – | – | – | – | – |
| O=c1c(Br)c(-c2ccccc2)[s+]([O-])c2ccccc12 (stereo unspecified) | 2.7 µM (inactive) | – | 16.4 µM (inactive) | 3.32 | 2.74 µM (inactive) | 15.8 µM (inactive) | 14.8 µM (inactive) | 6 µM (inactive) | 4.6 µM (inactive) | 13 µM (inactive) | 18.4 µM (inactive) | 16.2 µM (inactive) | 2.06 µM (inactive) | 8.07 µM (inactive) | 13.7 µM (inactive) | 0.861 µM (active) | 10.5 µM (inactive) | 12.9 µM (inactive) | 3.01 µM (inactive) | 17.7 µM (inactive) |
| CC(=O)Oc1c(OC(C)C)c(C)c(O[Si](C(C)C)(C(C)C)C(C)C)c2[nH]c3ccccc3c12 | > 100 µM (inactive) | – | > 45 µM (inactive) | > 75.7 | > 100 µM (inactive) | 67.3 µM (inactive) | > 88.3 µM (inactive) | > 100 µM (inactive) | > 100 µM (inactive) | > 100 µM (inactive) | > 100 µM (inactive) | > 100 µM (inactive) | 25.5 µM (inactive) | 99.5 µM (inactive) | > 100 µM (inactive) | 60.1 µM (inactive) | > 100 µM (inactive) | > 94.6 µM (inactive) | > 100 µM (inactive) | > 100 µM (inactive) |
| NC1(CCNC(=O)c2ccccc2)CCN(C(=O)c2ccccc2)CC1 | > 100 µM (inactive) | – | > 100 µM (inactive) | > 100 | > 100 µM (inactive) | > 100 µM (inactive) | > 10 µM (inactive) | > 100 µM (inactive) | > 100 µM (inactive) | – | 34.4 µM (inactive) | 0.548 µM (active) | > 100 µM (inactive) | > 100 µM (inactive) | > 100 µM (inactive) | > 100 µM (inactive) | 50.7 µM (inactive) | > 100 µM (inactive) | > 100 µM (inactive) | > 100 µM (inactive) |
| Cc1nc(Nc2ccccc2Cl)sc1C(=O)CC(=O)C(N)=O | 58.9 µM (inactive) | 19.7 µM (inactive) | 18.2 µM (inactive) | 33.7 | 33.4 µM (inactive) | 13.2 µM (inactive) | 57.4 µM (inactive) | 19.4 µM (inactive) | 54.7 µM (inactive) | – | 35.1 µM (inactive) | 6.87 µM (inactive) | – | 41.9 µM (inactive) | 35.1 µM (inactive) | 32.6 µM (inactive) | 7.98 µM (inactive) | 75.3 µM (inactive) | 76.4 µM (inactive) | 44.9 µM (inactive) |
| Clc1cccc(Cl)c1C1SCc2nc3ncccc3n21 (stereo unspecified) | > 100 µM (inactive) | > 100 µM (inactive) | > 100 µM (inactive) | > 100 | 49.5 µM (inactive) | 52.8 µM (inactive) | 19 µM (inactive) | 62.8 µM (inactive) | > 100 µM (inactive) | > 100 µM (inactive) | > 100 µM (inactive) | 40.6 µM (inactive) | > 100 µM (inactive) | > 100 µM (inactive) | > 100 µM (inactive) | 92.3 µM (inactive) | – | > 100 µM (inactive) | > 100 µM (inactive) | > 100 µM (inactive) |
| CC(C)(NC(=O)OCc1ccccc1)C(=O)NC(Cc1ccccc1)C(=O)NN (stereo unspecified) (Cbz-[Aib]-[ξF]-NHNH2) | > 100 µM (inactive) | > 100 µM (inactive) | > 100 µM (inactive) | > 100 | > 100 µM (inactive) | > 100 µM (inactive) | > 100 µM (inactive) | 42.1 µM (inactive) | > 100 µM (inactive) | > 100 µM (inactive) | > 100 µM (inactive) | > 100 µM (inactive) | – | > 100 µM (inactive) | > 100 µM (inactive) | > 100 µM (inactive) | > 100 µM (inactive) | > 100 µM (inactive) | > 100 µM (inactive) | > 100 µM (inactive) |
| CC(C)c1cccc(C(=O)NCCN(C)C)c1[N+](=O)[O-] | > 100 µM (inactive) | 65.9 µM (inactive) | – | > 100 | > 100 µM (inactive) | > 100 µM (inactive) | > 100 µM (inactive) | > 100 µM (inactive) | > 100 µM (inactive) | > 100 µM (inactive) | > 100 µM (inactive) | 35 µM (inactive) | > 100 µM (inactive) | > 100 µM (inactive) | > 100 µM (inactive) | > 100 µM (inactive) | – | > 100 µM (inactive) | > 100 µM (inactive) | > 100 µM (inactive) |
| O=C1c2ccccc2C(=O)N1C1(C(=O)NC2(C(=O)O)CCCC2)CCCC1 | > 100 µM (inactive) | > 100 µM (inactive) | > 100 µM (inactive) | > 100 | > 100 µM (inactive) | > 100 µM (inactive) | > 100 µM (inactive) | > 100 µM (inactive) | > 100 µM (inactive) | > 100 µM (inactive) | > 100 µM (inactive) | > 100 µM (inactive) | > 100 µM (inactive) | > 100 µM (inactive) | > 100 µM (inactive) | > 100 µM (inactive) | – | > 100 µM (inactive) | – | > 100 µM (inactive) |
| c1ccc(-c2cccc(-c3ccccn3)n2)nc1 [TERPYRIDINE] | 0.368 µM (active) | 1.09 µM (active) | 0.476 µM (active) | 0.407 | 0.345 µM (active) | 0.507 µM (active) | 0.397 µM (active) | 0.441 µM (active) | 0.453 µM (active) | 0.706 µM (active) | 1.17 µM (inactive) | 1.57 µM (inactive) | 0.317 µM (active) | 0.548 µM (active) | 0.736 µM (active) | 0.249 µM (active) | – | 0.164 µM (active) | 0.51 µM (active) | 0.783 µM (active) |
| O=C(/C=C/c1ccc(-c2ccccc2)cc1)NCc1ccc(C(=O)NCc2ccccc2)cc1 | > 100 µM (inactive) | > 100 µM (inactive) | > 100 µM (inactive) | > 100 | – | > 100 µM (inactive) | > 100 µM (inactive) | > 100 µM (inactive) | > 100 µM (inactive) | > 100 µM (inactive) | > 100 µM (inactive) | > 100 µM (inactive) | – | > 100 µM (inactive) | > 100 µM (inactive) | > 100 µM (inactive) | > 100 µM (inactive) | > 100 µM (inactive) | > 100 µM (inactive) | > 100 µM (inactive) |
| CN[C@H]1CC[C@]23C[C@]24CC[C@]2(C)[C@@H]([C@H](C)N(C)C)CC[C@@]2(C)[C@@H]4CC[C@H]3C1(C)C | 6.78 µM (inactive) | 20.6 µM (inactive) | 18.2 µM (inactive) | 10.7 | – | 15 µM (inactive) | 21.1 µM (inactive) | 13.9 µM (inactive) | 17.3 µM (inactive) | 12.4 µM (inactive) | 18 µM (inactive) | 14.4 µM (inactive) | – | 13.7 µM (inactive) | 15.8 µM (inactive) | 15.1 µM (inactive) | 10.9 µM (inactive) | 12.2 µM (inactive) | 11.2 µM (inactive) | 19.1 µM (inactive) |
| CC1(C)Oc2ccc3c(=O)cc(-c4cccs4)oc3c2C1C(=O)O (stereo unspecified) | > 100 µM (inactive) | > 100 µM (inactive) | > 100 µM (inactive) | – | > 100 µM (inactive) | – | > 100 µM (inactive) | > 100 µM (inactive) | > 100 µM (inactive) | – | > 100 µM (inactive) | – | > 100 µM (inactive) | > 100 µM (inactive) | > 10 µM (inactive) | > 100 µM (inactive) | – | > 100 µM (inactive) | > 100 µM (inactive) | > 100 µM (inactive) |
| Cc1nc2n(c1/C=C1/C(=O)Nc3ccccc31)CCS2 | 64.1 µM (inactive) | 31.2 µM (inactive) | 46.7 µM (inactive) | 34.2 | 33.3 µM (inactive) | 31.1 µM (inactive) | 32.7 µM (inactive) | 17.6 µM (inactive) | 79.6 µM (inactive) | 78 µM (inactive) | 5.74 µM (inactive) | 17.3 µM (inactive) | – | 42.4 µM (inactive) | 24.2 µM (inactive) | 47.1 µM (inactive) | > 100 µM (inactive) | 67.5 µM (inactive) | 41.5 µM (inactive) | 68.2 µM (inactive) |
| Cc1cn(C2CC(N=[N+]=[N-])C(CO)O2)c(=O)n(CCCCBr)c1=O (stereo unspecified) | > 100 µM (inactive) | > 100 µM (inactive) | > 100 µM (inactive) | > 100 | > 100 µM (inactive) | > 100 µM (inactive) | 35.6 µM (inactive) | > 100 µM (inactive) | > 100 µM (inactive) | > 100 µM (inactive) | 61 µM (inactive) | 63.2 µM (inactive) | – | 18.8 µM (inactive) | > 100 µM (inactive) | < 0.01 µM (active) | > 100 µM (inactive) | > 100 µM (inactive) | > 100 µM (inactive) | > 100 µM (inactive) |
